One series deals with NUGC3 cells (p53-Y220C). In words: Cell viability assay (CellTiter-Fluor / CellTiter-Glo 2.0), NUGC3. Type of series: cell-based, human. The following applies: Homo sapiens, NUGC-3; 72 h, Y220C cell line. Here is the method: (§1) We also envisaged that masking the carboxylate of MB710 as a simple ethylamide MB725 might influence cell permeability and uptake of the scaffold.
(§2) All cell lines were cultured as previously described. Cell viability was measured in quadruplicate (technical replicates) using the CellTiter-Fluor or CellTiter-Glo 2.0 cell viability assay kits (Promega, USA) as previously described.

Series [1] concerns NUGC4 cells (wild-type p53). Briefly: Cell viability assay, NUGC4. Type of series: cell-based. The following applies: Homo sapiens, NUGC-4; 72 h, p53 WT. Here is the method: as §1, §2
Series [2] relates to WI38 cells (non-cancerous fibroblast, p53 WT). In words: Cell viability assay, WI38. To be noted: Homo sapiens, WI-38, 72 h, read-out: IC50 WI38.
In another series the test system is BXPC-3 cells (p53-Y220C). Briefly: Cell viability assay, BXPC3. To be noted: Homo sapiens, BXPC-3, 72 h, read-out: IC50 BXPC3.
The nature of series [3]: Solubility (qualitative observation). Type of series: physicochemical.
For series [4], the target named is T1, stabilized p53-Y220C DBD (residues 94–312) (Homo sapiens, UniProt P04637, M133L/N239Y/N268D/V203A/Y220C).
T1 construct: Stabilized p53-Y220C DBD (residues 94–312) was expressed and purified; 6xHis / lipoyl domain / TEV protease cleavage site (N, cleaved yes); made in house; host or cells: E. coli C41
In words: Differential scanning fluorimetry (DSF), thermal stabilization of Y220C. The class given is binding. The following applies: 8 μM protein, 10 × SYPRO Orange, 250 μM ligand. Here is the method:
DSF was performed as described. […] All samples were measured in triplicate.
A general note: DSF heats the sample and reads unfolding from a dye or from intrinsic fluorescence.

For another series, the system named is p53 cancer mutant Y220C. Briefly: Binding affinity to the Y220C pocket, values taken from earlier papers (ITC/NMR). The following applies: Kd ratio.
Series [5] concerns the target T1, stabilized p53-Y220C DBD (residues 94–312). Briefly: Isothermal titration calorimetry (ITC). The class given is binding. The following applies: for Kd: ITC. Here is the method:
Isothermal Titration Calorimetry (ITC). ITC experiments were conducted as described. The cell unit contained 50 μM protein in a 25 mM KPi (pH 7.2), 150 mM NaCl, 1 mM TCEP, and 5% (v/v) DMSO assay buffer. The syringe contained 2–5 mM compound in the same buffer.

For series [6], the system named is HUH-7 and HUH-7 p53-Y220C KO cells. In words: Cell viability, HUH-7 versus isogenic HUH-7 p53-Y220C KO. Type of series: cell-based, human. To be noted: 72 h, at higher compound concentration than MB725. The text has this:
To confirm that MB725 mediated anticancer effects are dependent on p53-Y220C, we additionally tested the compound in HUH-7 and an in-house CRISPR generated isogenic p53-Y220C knock-out (KO) HUH-7 cell line (Fig. 8). This new cell line contains a frameshift mutation at codon 124 on one allele and deletion of amino acids 125–223 on the other allele, leading to functional inactivation of the p53 DNA-binding domain (aa 92–292). MB725 decreased cell viability by ca. 30–40% more potently in HUH-7 than in the isogenic HUH-7 p53-Y220C KO (Fig. 8, upper panel).
Fig. 8 Assessment of p53-Y220C dependent effect of MB725. Treatment of HUH-7 (p53-Y220C) and HUH-7 p53-Y220C KO cell lines with MB725 for 72 h underscores the enhanced cytotoxicity of MB725 in the presence of p53-Y220C (left panel). […] Cell viability was measured in quadruplicate and normalized against the values of blank (viability = 1) and no cell (viability = 0) controls (left panel). […] Relative mRNA fold-change was measured in triplicate and normalized against untreated sample according to the ΔΔCt method. […]
WI-38 and BXPC-3 (p53-Y220C) cell lines were purchased from ATCC and HUH-7 (p53-Y220C+/+), HUH-6 (wild-type p53+/+). […] Cell viability was measured in quadruplicate (technical replicates) using the CellTiter-Fluor or CellTiter-Glo 2.0 cell viability assay kits (Promega, USA) as previously described. […]

For series [7], the system named is NUGC4, HUH-6, NUGC3, HUH-7, SW1088, BXPC-3, WI38 cells. Briefly: Cell viability across all cell lines tested. Type of series: cell-based, human. The following applies: 72 h treatment; 60 and MB710: at concentrations up to 60 μM. The procedure:
as §1, §2

The subject of another series is SW1088 cells (p53-R273C). Briefly: Cell viability assay, SW1088. To be noted: Homo sapiens, SW1088, 72 h, read-out: IC50 SW1088.

The IC50 is the concentration needed to halve the response being measured. In general, ΔTm refers to the shift of the melting midpoint relative to a reference. Usually Kd stands for the equilibrium constant for the complex coming apart.

In the case of `Cn1cc(-c2ccccc2)c(-n2cccc2)n1` [Compound 2], the IC50 was 43 µM with NUGC3 cells (p53-Y220C), above 120 µM in series [1], around 120 µM in [2] and 57 µM with BXPC-3 cells (p53-Y220C).
For `CCN(CC)C1CCN(Cc2cc(C#CCNc3ccccc3)cc(I)c2O)CC1` [Compound 3], in that order: 6 µM, 9 µM, 7 µM and 11 µM.
`O=C(O)c1cc(I)cc(I)c1O` [Compound 4, 2-hydroxy-3,5-diiodobenzoic acid, reference compound]: in series [3], the “solubility (in words)” value is “water soluble”.
With `COC(=O)c1cc(I)c(-n2cccc2)c(I)c1O` [Compound 8, Methyl 2-hydroxy-3,5-diiodo-4-(1H-pyrrol-1-yl)benzoate], the shift in melting temperature (ΔTm) at 250 µM in series [4] was -0.1 °C.
For the molecule `O=C(O)c1cc(I)c(-n2cccc2)c(I)c1O` [Compound 9, 2-hydroxy-3,5-diiodo-4-(1H-pyrrol-1-yl)benzoic acid], the “fold more potent than parent fragment 4” value in the series with p53 cancer mutant Y220C is 40 fold.
Regarding `CN(C)CCNC(=O)c1cc(I)c(-n2cccc2)c(I)c1O` [Compound 10, N-(2-(dimethylamino)ethyl)-2-hydroxy-3,5-diiodo-4-(1H-pyrrol-1-yl)benzamide], in series [4], the ΔTm at 250 µM was found to be 1.3 °C. Besides, the “solubility (in words)” value in series [3] was “substantially less soluble than carboxylic acid 9”.
As to `CN1CCN(C(=O)c2cc(I)c(-n3cccc3)c(I)c2O)CC1` [Compound 11, (2-hydroxy-3,5-diiodo-4-(1H-pyrrol-1-yl)phenyl)(4-methylpiperazin-1-yl)methanone], the ΔTm at 250 µM in series [4] was found to be 1.2 °C. In series [5], this molecule showed a dissociation constant (Kd) of 30 µM.
Regarding `CNC(=O)c1cc(I)c(-n2cccc2)c(I)c1O` [Compound 12, 2-hydroxy-3,5-diiodo-N-methyl-4-(1H-pyrrol-1-yl)benzamide], in series [4], the shift in melting temperature (ΔTm) at 250 µM was 0.9 °C. Further, the Kd in [5] was 70 µM. The “solubility (in words)” value in [3] was “substantially less soluble than carboxylic acid 9”.
With `O=C(NO)c1cc(I)c(-n2cccc2)c(I)c1O` [Compound 15, N,2-dihydroxy-3,5-diiodo-4-(1H-pyrrol-1-yl)benzamide], in [4], the thermal shift (ΔTm) at 250 µM came out at 0.8 °C. Also, the Kd in series [5] turned out to be 139 µM.
In the same order, the values of `CN(C)Cc1cc(I)c(-n2cccc2)c(I)c1O` [Compound 17, 6-((dimethylamino)methyl)-2,4-diiodo-3-(1H-pyrrol-1-yl)phenol] are 0.9 °C and 60 µM.
Consider `O=c1[nH][nH]c2c(I)c(-n3cccc3)c(I)cc12` [Compound 21, 5,7-diiodo-6-(1H-pyrrol-1-yl)-1,2-dihydro-3H-indazol-3-one], for which, in [4], the thermal shift (ΔTm) at 250 µM was 1.5 °C. This molecule registered a Kd in series [5] of 50 µM.
For the molecule `O=C(O)c1cc(-c2ccccc2)c(-n2cccc2)c(I)c1O` [Compound 33, 4-hydroxy-5-iodo-6-(1H-pyrrol-1-yl)-[1,1'-biphenyl]-3-carboxylic acid], the thermal shift (ΔTm) at 250 µM in series [4] is 1 °C. The molecule also had a Kd in series [5] of 306 µM.
For `O=C(O)c1cc(-c2ccc(F)cc2)c(-n2cccc2)c(I)c1O` [Compound 34, 4'-fluoro-4-hydroxy-5-iodo-6-(1H-pyrrol-1-yl)-[1,1'-biphenyl]-3-carboxylic acid], in that order: 0.8 °C and 113 µM.
Regarding `COc1ccc(-c2cc(C(=O)O)c(O)c(I)c2-n2cccc2)cc1` [Compound 35, 4-hydroxy-5-iodo-4'-methoxy-6-(1H-pyrrol-1-yl)-[1,1'-biphenyl]-3-carboxylic acid], the shift in melting temperature (ΔTm) at 250 µM in series [4] stood at 1 °C. The molecule also came in with a Kd in [5] of 122 µM.
On to `CCOc1cc(C(=O)O)c(O)c(I)c1-n1cccc1` [Compound 49, 5-ethoxy-2-hydroxy-3-iodo-4-(1H-pyrrol-1-yl)benzoic acid], for which the ΔTm at 250 µM in series [4] was 1.3 °C. The Kd in series [5] stood at 63 µM. Moreover, in series [5] (Kd ratio versus parent iodine (21 μM)), the “times less potent than the parent iodine” value came out at 3.
On to `C=CCOc1cc(C(=O)O)c(O)c(I)c1-n1cccc1` [Compound 51, 5-(allyloxy)-2-hydroxy-3-iodo-4-(1H-pyrrol-1-yl)benzoic acid], for which the thermal shift (ΔTm) at 250 µM in series [4] came out at 1.8 °C. In [5], this molecule had a dissociation constant Kd of 33 µM.
In the case of `O=C(O)c1cc(OCCC(F)(F)F)c(-n2cccc2)c(I)c1O` [Compound 53, 2-hydroxy-3-iodo-4-(1H-pyrrol-1-yl)-5-(3,3,3-trifluoropropoxy)benzoic acid], in series [4], the shift in melting temperature (ΔTm) at 250 µM was found to be 1.4 °C. This molecule showed a Kd in series [5] of 108 µM.
Consider `O=C(O)c1cc(OCCO)c(-n2cccc2)c(I)c1O` [Compound 54, 2-hydroxy-5-(2-hydroxyethoxy)-3-iodo-4-(1H-pyrrol-1-yl)benzoic acid], for which, in [4], the shift in melting temperature (ΔTm) at 250 µM came to 0.6 °C. In series [5], this molecule returned a Kd of 726 µM.
Turning to `O=C(O)c1cc(OCCc2ccccc2)c(-n2cccc2)c(I)c1O` [Compound 55, 2-hydroxy-3-iodo-5-phenethoxy-4-(1H-pyrrol-1-yl)benzoic acid], in [4], the shift in melting temperature (ΔTm) at 250 µM was determined as 1 °C. In [5], binding was characterised by a dissociation constant (Kd) of 116 µM.
For `CC(C)COc1cc(C(=O)O)c(O)c(I)c1-n1cccc1` [Compound 56, 2-hydroxy-3-iodo-5-isobutoxy-4-(1H-pyrrol-1-yl)benzoic acid], in that order: 1.4 °C and 30 µM.
Take `CCN(CC)c1nc2c(C(=O)O)c(O)c(I)c(-n3cccc3)c2s1` [Compound 70, 2-(diethylamino)-5-hydroxy-6-iodo-7-(1H-pyrrol-1-yl)benzo[d]thiazole-4-carboxylic acid]: the shift in melting temperature (ΔTm) at 250 µM in series [4] worked out at 2 °C. Binding in [5] was characterised by a dissociation constant (Kd) of 4 µM. In addition, the “fold increase in affinity compared to starting fragment 4” value in [5] (Kd ratio) is 200 fold. Besides, the half-inhibitory concentration (IC50) with NUGC3 cells (p53-Y220C) is 90 µM; in series [1] it was around 120 µM; in [2], above 120 µM; in the series with SW1088 cells (p53-R273C), above 120 µM. Besides, in [6], the “viability reduction HUH-7 versus HUH-7 p53-Y220C KO (in words)” value is “stronger viability reduction in HUH-7 cells than in HUH-7 p53-Y220C KO cells”. The “toxicity and selectivity across cell lines (in words)” value in [7] is given as “relatively low toxicity against all cell lines tested”.
For the molecule `CCN(CC)c1nc2c(C(=O)OC)c(O)c(I)c(-n3cccc3)c2s1` [Compound 71, Methyl 2-(diethylamino)-5-hydroxy-6-iodo-7-(1H-pyrrol-1-yl)benzo[d]thiazole-4-carboxylate], in [3], the “solubility (in words)” value is given as “reduced solubility”.

The values are drawn from paper PMC5986712, “Aminobenzothiazole derivatives stabilize the thermolabile p53 cancer mutant Y220C and show anticancer activity in p53-Y220C cell lines” (European Journal of Medicinal Chemistry, 2018).
